Measured values from ChEMBL document CHEMBL5120867, “Hernandezine Regulates Proliferation and Autophagy-Induced Apoptosis in Melanoma Cells” (J Nat Prod, 2022).
Activity calls are given as the source filed them. The rule behind the calls is not given here.

What was measured:
A-375 [1] = assay: Induction of apoptosis in human A-375 cells assessed as cytoplasmic shrinkage at 6 to 8 uM incubated for 24 hrs by Hoechst 33258 staining based fluorescence microscopy; format: functional, cell-based; conditions: dose 6-8 µM
A-375 [2] = assay: Induction of autophagy in human A-375 cells assessed as decrease in phosphorylated p70S6K level at 7 uM incubated for 6 to 24 hrs by Western blotting analysis; format: functional, cell-based; conditions: time 6-24 hrs
A-375 [3] = assay: Induction of apoptosis in human A-375 cells assessed as […] of Bax/Bcl-2 protein level at 6 to 8 uM incubated for 24 hrs by Western blot analysis; format: functional, cell-based; conditions: dose 6-8 µM
B16 [4] = assay: Induction of cell cycle arrest in mouse B16 cells assessed as accumulation at G2/M phase incubated for 24 hrs by PI staining based flow cytometry analysis (reference value: 0.88 %); format: functional
A-375 [5] = assay: Induction of cell cycle arrest in human A-375 cells assessed as accumulation at S phase at 8 uM incubated for 24 hrs by PI staining based flow cytometry analysis (reference value: 28.83 %); format: functional
A-375 [6] = assay: Induction of autophagy in human A-375 cells assessed as increase in phosphorylated AMPK at 7 uM incubated for 6 to 24 hrs by Western blotting analysis; format: functional, cell-based; conditions: time 6-24 hrs
B16 [7] = assay: Induction of cell cycle arrest in mouse B16 cells assessed as accumulation at G0/G1 phase at 6 uM incubated for 24 hrs by PI staining based flow cytometry analysis (reference value: 61.83 %); format: functional
A-375 [8] = assay: Induction of apoptosis in human A-375 cells assessed as early apoptotic cells preincubated for 2 hrs with […] followed by compound addition and measured after 24 hrs by Annexin-V-FITC/PI-staining based flow cytometry (reference value: 3.1 %); format: functional
B16 [9] = assay: Induction of cell cycle arrest in mouse B16 cells assessed as accumulation at G0/G1 phase at 5 uM incubated for 24 hrs by PI staining based flow cytometry analysis (reference value: 61.83 %); format: functional
A-375 [10] = assay: Induction of cell cycle arrest in human A-375 cells assessed as accumulation at G0/G1 phase at 8 uM incubated for 24 hrs by PI staining based flow cytometry analysis (reference value: 69.68 %); format: functional
A-375 [11] = assay: Induction of apoptosis in human A-375 cells assessed as late apoptotic cells preincubated for 2 hrs with 3-MA followed by compound addition and measured after 24 hrs by Annexin-V-FITC/PI-staining based flow cytometry (reference value: 5.7 %); format: functional
A-375 [12] = assay: Induction of cell cycle arrest in human A-375 cells assessed as accumulation at G0/G1 phase incubated for 24 hrs by PI staining based flow cytometry analysis (reference value: 56.69 %); format: functional
B16 [13] = assay: Induction of cell cycle arrest in mouse B16 cells assessed as accumulation at G2/M phase at 6 uM incubated for 24 hrs by PI staining based flow cytometry analysis (reference value: 4.70 %); format: functional
B16 [14] = assay: Induction of cell cycle arrest in mouse B16 cells assessed as accumulation at S phase at 5 uM incubated for 24 hrs by PI staining based flow cytometry analysis (reference value: 33.46 %); format: functional
A549 = assay: Cytotoxicity against human A549 cells assessed as reduction in cell viability by MTT assay; format: functional, cell-based
B16 [15] = assay: Induction of cell cycle arrest in mouse B16 cells assessed as accumulation at S phase incubated for 24 hrs by PI staining based flow cytometry analysis (reference value: 42.53 %); format: functional
B16 [16] = assay: Induction of apoptosis in mouse B16 cells assessed as cytoplasmic shrinkage at 5 to 7 uM incubated for 24 hrs by Hoechst 33258 staining based fluorescence microscopy; format: functional, cell-based; conditions: dose 5-7 µM
A-375 [17] = assay: Induction of cell cycle arrest in human A-375 cells assessed as accumulation at G2/M phase at 6 uM incubated for 24 hrs by PI staining based flow cytometry analysis (reference value: 1.48 %); format: functional
B16 [18] = assay: Induction of apoptosis in mouse B16 cells assessed as early apoptotic cells preincubated for 2 hrs with […] followed by compound addition and measured after 24 hrs by Annexin-V-FITC/PI-staining based flow cytometry (reference value: 0.9 %); format: functional
HepG2 = assay: Cytotoxicity against human HepG2 cells assessed as reduction in cell viability by MTT assay; format: functional, cell-based
A-375 [19] = assay: Induction of apoptosis in human A-375 cells assessed as early apoptotic cells after 24 hrs by Annexin-V-FITC/PI-staining based flow cytometry (reference value: 3.1 %); format: functional
B16 [20] = assay: Cytotoxicity against mouse B16 cells assessed as decrease in number of adherent cells at 5 to 7 uM incubated for 24 hrs by phase contrast microscope analysis; format: functional, cell-based; conditions: dose 5-7 µM
B16 [21] = assay: Induction of cell cycle arrest in mouse B16 cells assessed as accumulation at G0/G1 phase incubated for 24 hrs in presence of AG490 by PI staining based flow cytometry analysis (reference value: 56.59 %); format: functional
A-375 [22] = assay: Induction of apoptosis in human A-375 cells assessed as early apoptotic cells at 8 uM after 24 hrs by Annexin-V-FITC/PI-staining based flow cytometry (reference value: 1.4 %); format: functional
B16 [23] = assay: Induction of apoptosis in mouse B16 cells assessed as late apoptotic cells at 7 uM measured after 24 hrs by Annexin-V-FITC/PI-staining based flow cytometry (reference value: 4.4 %); format: functional
A-375 [24] = assay: Inhibition of colony formation in human A-375 cells assessed as reduction in volume of colonies at 6 to 8 uM incubated for 24 hrs followed by replacement with fresh medium and measured after 14 days by crystal violet staining based analysis; format: functional, cell-based; conditions: dose 6-8 µM

In the case of `COc1ccc2cc1Oc1ccc(cc1)C[C@H]1c3cc(c(OC)cc3CCN1C)Oc1c(OC)c(OC)c(OC)c3c1[C@H](C2)N(C)CC3` [HERNANDEZINE], the Activity (A-375 [1]) is reported as “Active”, the Activity (A-375 [2]) is reported as “Active” and the Activity (A-375 [3]) is reported as “Active”. For the same compound, the Activity (B16 [4]) was 8.78%, the Activity (A-375 [5]) was 19.2% and the Activity (A-375 [6]) was “Active”. It also gave an Activity (B16 [7]) of 72.89%, an Activity (A-375 [8]) of 34.8% and an Activity (B16 [9]) of 72%. The Activity (A-375 [10]) was 79.56%, the Activity (A-375 [11]) was 27.1% and the Activity (A-375 [12]) was 63.87%. For the same compound, the Activity (B16 [13]) was 3.27%, the Activity (B16 [14]) was 23.42% and the IC50 (A549) was 7.59 µM. The Activity (B16 [15]) was 12.63%, the Activity (B16 [16]) was “Active” and the Activity (A-375 [17]) was 1.43%. The Activity (B16 [18]) was 14.4%, the IC50 (HepG2) was 7.42 µM and the Activity (A-375 [19]) was 19.6%. The Activity (B16 [20]) was “Active”, the Activity (B16 [21]) was 84.61% and the Activity (A-375 [22]) was 18.2%. For the same compound, the Activity (B16 [23]) was 25.8% and the inhibition (A-375 [24]) was “Active”.
